Entries after “also recorded” stand apart in the source; their conditions may differ.
Key:
NMDA PCP site = target: T1, NMDA PCP site (Rattus norvegicus, UniProt P35439); assay: [^3H]TCP radioligand competition binding on rat brain membranes; conditions: for IC50: inhibition of [^3H]TCP binding
T1 construct: from tissue; host or cells: Wistar rat hippocampus, frontal cortex or forebrain synaptic membranes

[1] = target: T2, NMDA receptor glycine site (Rattus norvegicus, UniProt P35439); assay: [^3H]glycine competition binding, rat forebrain membranes; conditions: radioligand [^3H]-glycine
T2 construct: from tissue; host or cells: Wistar rat forebrain synaptic membranes

AMPA receptor = assay: [^3H]AMPA competition binding, rat forebrain membranes; conditions: radioligand [^3H]-AMPA
Kaïnate receptor = assay type: binding, rat
[2] = target: T3, Dopaminergic receptor (D1) (Rattus norvegicus, UniProt P18901); assay: [^3H]SCH23390 competition binding, rat striatum membranes; conditions: radioligand [^3H]-SCH23390
T3 construct: from tissue; host or cells: Wistar rat brain synaptic membranes (striatum according to the earlier reading)

[3] = target: T4, Dopaminergic receptor (D2) (Rattus norvegicus, UniProt P61169); assay: [^3H]raclopride competition binding, rat striatum membranes; conditions: radioligand [^3H]-raclopride
T4 construct: from tissue; host or cells: Wistar rat brain synaptic membranes (striatum according to the earlier reading)

[4] = read-out: IC50 ± SEM ([^19F]FNM inhibition)

T4 sequence (P61169 whole entry): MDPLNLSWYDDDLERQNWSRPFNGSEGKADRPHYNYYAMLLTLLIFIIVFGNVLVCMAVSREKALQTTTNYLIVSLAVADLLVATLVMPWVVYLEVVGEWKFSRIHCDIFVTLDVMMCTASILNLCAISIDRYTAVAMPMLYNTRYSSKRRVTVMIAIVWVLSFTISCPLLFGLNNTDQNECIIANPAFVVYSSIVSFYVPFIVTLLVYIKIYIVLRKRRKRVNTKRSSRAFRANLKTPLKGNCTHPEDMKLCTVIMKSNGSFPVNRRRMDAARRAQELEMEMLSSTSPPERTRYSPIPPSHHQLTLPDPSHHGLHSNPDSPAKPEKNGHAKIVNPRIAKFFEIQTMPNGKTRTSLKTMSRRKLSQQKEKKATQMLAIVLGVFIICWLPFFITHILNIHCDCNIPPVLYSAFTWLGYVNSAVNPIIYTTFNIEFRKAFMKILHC
T3 sequence (P18901 whole entry): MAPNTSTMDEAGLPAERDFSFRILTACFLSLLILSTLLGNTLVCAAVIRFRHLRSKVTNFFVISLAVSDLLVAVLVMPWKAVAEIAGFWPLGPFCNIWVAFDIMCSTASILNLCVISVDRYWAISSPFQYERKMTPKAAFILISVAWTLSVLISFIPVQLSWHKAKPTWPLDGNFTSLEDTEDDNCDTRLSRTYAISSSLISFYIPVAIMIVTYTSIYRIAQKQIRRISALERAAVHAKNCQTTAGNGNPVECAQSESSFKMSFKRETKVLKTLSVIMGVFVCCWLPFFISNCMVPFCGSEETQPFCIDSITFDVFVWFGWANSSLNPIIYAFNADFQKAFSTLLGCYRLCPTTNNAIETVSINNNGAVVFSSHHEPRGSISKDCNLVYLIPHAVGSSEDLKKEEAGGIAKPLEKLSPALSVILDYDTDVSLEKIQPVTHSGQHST

Fluoroethylnormemantine [[^19F]FNM] was tested, and the “selectivity for the NMDA receptor ion-channel compared to the other targets examined” value (NMDA PCP site; in the forebrain) was “at least sevenfold”, the IC50 (NMDA PCP site; rat forebrain) was 13 ± 8.9 µM and the IC50 (NMDA PCP site; rat frontal cortex) was 80.8 ± 15.1 µM. The IC50 (NMDA PCP site; rat hippocampus) was 52.9 ± 9.7 µM, the “IC50 ± SEM ([^19F]FNM inhibition)” value [1] was “did not displace; also recorded: No inhibition” and the “IC50 ± SEM ([^19F]FNM inhibition)” value (AMPA receptor) was “did not displace; also recorded: No inhibition”. For the same substance, the “IC50 ± SEM ([^19F]FNM inhibition)” value (Kaïnate receptor) was “did not displace; also recorded: No inhibition”, the “IC50 ± SEM ([^19F]FNM inhibition)” value [2] was “did not displace” and the IC50 [2, 4] was > 1000 µM. For the same substance, the “IC50 ± SEM ([^19F]FNM inhibition)” value [3] was “did not displace” and the IC50 [3, 4] was > 1000 µM.

Reference: PMC10333392 (Molecular Imaging and Biology, 2023)
